# Literature values in PMC2110886 (PLoS ONE, 2007).
# Test system: Seasonal influenza strains
# Set-up: method as in PMID 15709056
# Conditions: in children; cited from earlier work
smiles,measurement,value
"CCOC(=O)C1=C[C@@H](OC(CC)CC)[C@H](NC(C)=O)[C@@H](N)C1 [Oseltamivir, oseltamivir, reference compound]",rate of resistance to oseltamivir,4%
